Data on three molecules can be found in patent US20240132479A1, “THERAPEUTIC COMPOUNDS AND USES THEREOF” (Board of Trustees of Michigan State University, priority 2021, published 2024).

Data set [1] relates to M. avium (ATCC 700891 MAC 101). Description: MIC determination in microdilution assay, M. avium. The class given is cell-based. As to conditions: Mycobacterium avium, ATCC700891. In general terms: In broth dilution the organism is exposed to a series of concentrations in liquid medium.
The nature of data set [2]: in vitro. The class given is cell-based. As to conditions: human. How it is done:
(§1) The compounds of Examples 2, 21A, and 19 were tested for 1) for ex vivo efficacy and 2) cytotoxicity. Ex vivo efficacy was determined by inhibition of Mycobacterium tuberculosis (Mtb) H37Rv, Mycobacterium avium complex (ATCC 700891 MAC 101), and Mycobacterium abscessus (ATCC 19977). Cytotoxicity tests were carried out against three human cell lines, THP-1 (ATCC TIB-202), HepG2 (ATCC HB-8065), and HeLa (ATCC CCL-2), IC50 values were calculated from dose response curves to determine cytotoxicity of test compounds. […] Of the three compounds tested for ex vivo efficacy against NTM strains, there was no activity (>32 mg/L) against M. avium and one compound with activity against M. abscessus. […] These compounds were not cytotoxic (>128 mg/L) against HepG2 and HeLa cells. The compounds average therapeutic index for HepG2 was 12.4-48.3 and 96.7-389 for HeLa.

The test system of data set [3] is M. abscessus (ATCC 19977). In words: MIC determination in microdilution assay, M. abscessus. The class given is cell-based, Mycobacterium abscessus. As to conditions: Mycobacteroides abscessus, ATCC19977; read-out: MIC M. abcessus 19977.
The subject of data set [4] is Mtb H37Rv. Description: MIC determination in microdilution assay, Mtb H37Rv. The class given is cell-based. Particulars: Mycobacterium tuberculosis.
In data set [5] the test system is Mycobacterium abscessus (ATCC 19977). In words: Ex vivo efficacy, M. abscessus. The class given is cell-based. The procedure: as §1
Data set [6] concerns Mycobacterium avium complex (ATCC 700891 MAC 101). In words: Ex vivo efficacy, M. avium. The class given is cell-based. The procedure: as §1
The mark [7] stands for this setting: HeLa cells, read-out: HeLa Cytotoxicity (IC50 μg/ml).
[8] abbreviates: HepG2 cells, read-out: HepG2 Cytotoxicity (IC50 μg/ml).
The mark [9] stands for this setting: THP-1 cells, read-out: THP-1 Cytotoxicity (IC50 μg/ml).

Converted amounts (≈) assume the structure as drawn. Where two headings read alike, the source gives them in different places.

The term MIC denotes the smallest concentration in the dilution series that meets the test's criterion for growth inhibition. Broadly, the melting point is the temperature, or range, at which the solid turns liquid. `Cc1cc2nc(SCC(=O)N(C(C)C)C(C)C)[nH]c2cc1C` [Example 2, 2-[(5,6-dimethyl-1H-1,3-benzodiazol-2-yl)sulfanyl]-N,N-bis(propan-2-yl)acetamide] came in with a melting point of 172 °C. For the same molecule, in data set [1], the MIC was over 64 mg/L. The IC50 in data set [2] (setting [7]) is 4 µg/mL (≈ 12.5 µM). For the same molecule, in data set [2] (setting [8]), the IC50 amounted to 0.5 µg/mL (≈ 1.57 µM). The IC50 in data set [2] (setting [9]) was determined as 0.5 µg/mL (≈ 1.57 µM). Also, in data set [3], the MIC turned out to be 4 mg/L (≈ 12.5 µM). This molecule registered an MIC in data set [4] of 0.5 mg/L (≈ 1.57 µM). Besides, in data set [5], the “M. abscessus ex vivo efficacy (>90% inhibition μg/ml)” value was 0.25 µg/mL. Further, the “M. avium ex vivo efficacy (>90% inhibition μg/ml)” value in data set [6] amounted to 0.5 µg/mL.
For `CC(C)N(C(=O)CCc1nc2cc(Cl)c(Cl)cc2[nH]1)C(C)C` [Example 19], the MIC in data set [1] was 8 mg/L (≈ 23.4 µM); in data set [3], 1 mg/L (≈ 2.92 µM); in data set [4], at most 0.125 mg/L. The IC50 was 1 µg/mL (≈ 2.92 µM) in data set [2] (setting [7]), at most 0.125 µg/mL in data set [2] (setting [8]) and at most 0.125 µg/mL in data set [2] (setting [9]). In addition, the “M. abscessus ex vivo efficacy (>90% inhibition μg/ml)” value in data set [5] is at most 0.125 µg/mL. In addition, the “M. avium ex vivo efficacy (>90% inhibition μg/ml)” value in data set [6] was at most 0.125 µg/mL.
`Cc1cc2nc(CCC(=O)N(C(C)C)C(C)C)[nH]c2cc1C` [Example 21A]: the MIC in data set [1] turned out to be 16 mg/L (≈ 53.1 µM); in data set [3] it was 2 mg/L (≈ 6.63 µM); in data set [4], 0.25 mg/L (≈ 0.829 µM). Besides, the IC50 in data set [2] (setting [7]) is 2 µg/mL (≈ 6.63 µM); in data set [2] (setting [8]) it was at most 0.125 µg/mL; in data set [2] (setting [9]), at most 0.125 µg/mL. Also, the “M. abscessus ex vivo efficacy (>90% inhibition μg/ml)” value in data set [5] was 0.25 µg/mL. Further, the “M. avium ex vivo efficacy (>90% inhibition μg/ml)” value in data set [6] amounted to 0.25 µg/mL.
